Test results as given in US7553832B2, “Methods and compositions for specific inhibition of protein splicing by small molecules” (Boston Biomedical Research Institute, priority 2005, dated 2009).
pIC50: −log10 of the molar value. ≈ marks a conversion by molar mass, not a printed value. Marks after values point to notes of the source that are not given here.

How the values were obtained:
[1] = target: T1, M. tuberculosis RecA intein (Mycobacterium tuberculosis, UniProt P9WHJ3); type: biochemical
T1 sequence (P9WHJ3 with tags, fused parts or gaps): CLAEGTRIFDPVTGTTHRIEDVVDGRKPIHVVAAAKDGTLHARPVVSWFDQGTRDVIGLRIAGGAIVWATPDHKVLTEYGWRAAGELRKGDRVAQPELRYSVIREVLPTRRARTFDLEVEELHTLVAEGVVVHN

BCG = BCG MIC; type: cell-based
Mtu H37Rv [2] = test: Mtu H37Rv MIC; type: cell-based, M. tuberculosis
Mtu H37Rv [3] = test: Alamar Blue reduction inhibition measured by TAACF; type: cell-based, M. tuberculosis; settings: Mycobacterium tuberculosis, at 6.25 μg/ml, as measured by TAACF

SMILES | pIC50 [1] | further results
Oc1cc2c(cc1C(c1ccc(Cl)c(Cl)c1)N1CCCC1)OCO2 (stereo not drawn) [Compound 1] | 5.30 | 
CCCN(CCC)S(=O)(=O)c1ccc(C(=O)SCC(=O)OCC)cc1 [Compound 2] | 5.10 | 
CS(=O)(=O)c1cc(C(F)(F)F)cc(S(C)(=O)=O)c1S(C)(=O)=O [Compound 3] | 5.00 | BCG MIC (BCG): 20 µg/mL; Mtu H37Rv MIC (Mtu H37Rv [2]): 20^a μg/ml
CC(=O)c1cc([N+](=O)[O-])c(Sc2ccc(Cl)cc2)s1 [Compound 4] | 5.30 | 
O=S(=O)(c1ccc(Br)cc1)c1snnc1-c1ccccc1 [Compound 6] | 5.40 | inhibition at 6.25 µg/mL (Mtu H37Rv [3]): 32%
O=S(=O)(c1ccc(Cl)c(Cl)c1)c1snnc1-c1ccccc1 [Compound 7] |  | inhibition at 6.25 µg/mL (Mtu H37Rv [3]): 96%
O=C1CSC(c2ccc(Cl)cc2)C(=O)N1c1ccc(C(F)(F)F)cc1 (stereo not drawn) [Compound 8] | 5.30 | 
COc1ccc(NC(=O)C(Cl)=C(Cl)[S+]([O-])Cc2ccccc2)cn1 (stereo not drawn) [Compound 9] | 5.00 | BCG MIC (BCG): 5 µg/mL; Mtu H37Rv MIC (Mtu H37Rv [2]): 5^d μg/ml
O=C(Nc1ccccc1)c1nnsc1S(=O)(=O)c1ccc(Cl)cc1 [Compound 10] | 5.10 | 
O=C(c1nnsc1[S+]([O-])c1ccc(Cl)cc1)N1CCCCC1 (stereo not drawn) [Compound 11] | 5.40 | BCG MIC (BCG): 5 µg/mL; Mtu H37Rv MIC (Mtu H37Rv [2]): 5 µg/mL
O=C(Nc1ccc(F)cc1)c1nnsc1S(=O)(=O)c1ccc(Cl)cc1 [Compound 12] | 5.52 | BCG MIC (BCG): 20 µg/mL; Mtu H37Rv MIC (Mtu H37Rv [2]): 10 µg/mL
O=C(CCl)N1CCN2C(=O)c3ccccc3C12c1ccc(Cl)cc1 (stereo not drawn) [Compound 13] | 5.40 | BCG MIC (BCG): 20 µg/mL; Mtu H37Rv MIC (Mtu H37Rv [2]): 10 µg/mL
N#CC1(C#N)C(c2cccc(I)c2)C(C(N)=O)N2C=Cc3ccccc3C21 (stereo not drawn) [Compound 17] | 4.70 | 
N#CC1(C#N)C(c2ccccc2Cl)C1(C#N)C#N [Compound 21] | 5.10 | 
CSC(Nc1ccc(F)cc1)=C(C#N)C(=O)c1ccco1 [Compound 22] | 5.52 | Mtu H37Rv MIC (Mtu H37Rv [2]): 20 µg/mL
O=C(Oc1ccc(Cl)cc1)c1snnc1-c1ccccc1 [Compound 23] | 5.52 | 
N#CCSc1ccc(C#N)cc1 [Compound 24] | 4.96 | MIC (Mtu H37Rv [2]; Mycobacterium tuberculosis, H37RV): 5 µg/mL (≈ 28.7 µM)
C=CCn1c(Sc2ncnc3c2sc(=S)n3CC=C)nnc1-c1ccccc1 [Compound 27] | 5.70 | 
N#CC(N)=C(C#N)NCc1ccccc1Sc1ccc(Cl)cc1 [Compound 29] | 4.52 | 
CC1(C)CC(=O)c2c(S(C)(=O)=O)sc(C(=O)OCc3ccccc3)c2C1 [Compound 30] | 5.30 | BCG MIC (BCG): 20 µg/mL
N#Cc1nccnc1S(=O)(=O)c1cccs1 [Compound 31] | 5.30 | BCG MIC (BCG): 6 µg/mL; Mtu H37Rv MIC (Mtu H37Rv [2]): 10 µg/mL
COC(=O)c1sc(S(C)(=O)=O)c(C#N)c1-c1cc(C(C)(C)C)oc1C [Compound 33] | 5.40 | 
O=S(=O)(c1cccc(C(F)(F)F)c1)c1snnc1-c1ccccc1 [Compound 35] | 6.00 | MIC (BCG; Mycobacterium tuberculosis variant bovis BCG, BCG, read-out: BCG MIC): 20 µg/mL (≈ 54 µM)
O=S(=O)(Cc1cccc(C(F)(F)F)c1)c1snnc1-c1ccccc1 [Compound 36] | 5.30 | 
CC1(C)CC(=O)C2(C(=O)C1)C(c1ccc(Cl)cc1Cl)C2(C#N)C#N (stereo not drawn) [Compound 37] | 5.30 | 
O=C(OCn1ncc(Cl)c(Cl)c1=O)c1cccc(C(F)(F)F)c1 [Compound 38] | 6.10 | 

SMILES | pIC50 [1] | further results
Cn1cc(C(=O)c2cccc(Cl)c2Cl)cc1C(=O)C(Cl)(Cl)Cl [Compound 40] | 5.30 | 
CCOC(=O)c1nnc(-c2ccccc2)nc1Sc1ccccc1C(=O)OC [Compound 41] | 5.70 | 
COc1ccc(NC(=O)C(Cl)=C(Cl)[S+]([O-])Cc2ccc(C)cc2)cn1 (stereo not drawn) [Compound 43] | 5.52 | BCG MIC (BCG): 1 µg/mL; Mtu H37Rv MIC (Mtu H37Rv [2]): 2.5 µg/mL
Oc1cc(OCc2ccc(C(F)(F)F)cc2)ccc1-c1cc[nH]n1 [Compound 44] | 5.30 | 
[O-][S+](c1ccc(C(F)(F)F)cc1)c1cnn2c(Cl)nnc2c1 (stereo not drawn) [Compound 45] | 5.30 | BCG MIC (BCG): 5 µg/mL; Mtu H37Rv MIC (Mtu H37Rv [2]): 2.5 µg/mL
COc1cccc(N(NC(=O)C(O)(c2cccc(C(F)(F)F)c2)c2cccc(C(F)(F)F)c2)C(=O)CCl)c1 [Compound 51] | 5.70 | 
O=C(Nn1c(C2CCCCC2)nc2ccccc2c1=O)c1cc([N+](=O)[O-])cc([N+](=O)[O-])c1Cl [Compound 53] | 6.00 | BCG MIC (BCG): ~20 µg/mL
O=[N+]([O-])c1cc(C(F)(F)F)cc([N+](=O)[O-])c1Sc1nc2ccccc2[nH]1 [Compound 55] | 4.82 | BCG MIC (BCG): 5 µg/mL; Mtu H37Rv MIC (Mtu H37Rv [2]): 20 µg/mL
CCOC(=O)CSc1nc2c(c(-c3cccs3)c1C#N)CN(C)CC2 [Compound 56] | > 4.46 | 
O=C(CCl)c1ccc(Cc2ncc(C(F)(F)F)cc2Cl)s1 [Compound 57] | > 5.30 | 
O=C(c1c[nH]c(C(=O)C(Cl)(Cl)Cl)c1)c1cccc(Cl)c1Cl [Compound 59] | > 5.30 | 
O=C(c1c[nH]c(C(=O)C(Cl)(Cl)Cl)c1)c1ccc(Cl)cc1Cl [Compound 62] | > 5.30 | 
Cc1cc(Oc2c([N+](=O)[O-])cc(C(F)(F)F)cc2[N+](=O)[O-])ccc1Cl [Compound 64] | 5.22 | 
Cc1cc(S(=O)(=O)c2ccc(C(F)(F)F)cc2[N+](=O)[O-])c(Cl)cc1Cl [Compound 66] | > 5.30 | BCG MIC (BCG): >20 µg/mL
CCOC(=O)c1cnc2c(F)ccc(F)c2c1Oc1cncc(Cl)c1 [Compound 67] | > 5.30 | 
O=C(Sc1ccccc1)c1ccc2ncsc2c1 [Compound 68] | 5.10 | 
Oc1cc2c(cc1C(c1ccc(C(F)(F)F)cc1)N1CCOCC1)OCO2 (stereo not drawn) [Compound 69] | > 5.30 | 
Oc1ccc(Br)cc1CNc1cccc(C(F)(F)F)c1 [Compound 70] | 4.92 | 
CCOC(=O)c1cc(C#N)c(Sc2nnc(SCC3CC3)s2)nc1C(F)(F)F [Compound 71] | > 5.30 | BCG MIC (BCG): 10 µg/mL; Mtu H37Rv MIC (Mtu H37Rv [2]): 10 µg/mL
CCOC(=O)c1cc(C#N)c(Sc2nnc(SC)s2)nc1C(F)(F)F [Compound 72] | > 5.30 | BCG MIC (BCG): 10 µg/mL; Mtu H37Rv MIC (Mtu H37Rv [2]): 10 µg/mL
c1ccc(-c2cnc3nonc3n2)cc1 [Compound 74] | > 5.30 | 
O=C(Oc1cc(OC(=O)c2ccco2)cc(OC(=O)c2ccco2)c1)c1ccco1 [Compound 75] | > 5.30 | 
O=C(Oc1ccc(Br)cc1)c1ccco1 [Compound 76] | 5.10 | 
O=C(Oc1ccc(C=Nc2ccc(F)cc2)cc1)c1ccco1 [Compound 77] | 4.52 | 
O=C(Oc1ccc(C=Nc2ccc(F)cc2)cc1)c1cccs1 [Compound 78] | 4.89 | 
Cc1nn(C(N)=S)c(O)c1C(c1cccc(Cl)c1Cl)C(C#N)C#N (stereo not drawn) [Compound 81] | 4.92 | 
